Data from patent US20170369523A1, “TEMPLATE-FIXED BETA-HAIRPIN PEPTIDOMIMETICS THAT ARE LIGANDS FOR G-PROTEIN-COUPLED RECEPTORS (GPCRS) AND ARE MODULATORS OF TRANSCRIPTION FACTORS AND COACTIVATORS” (POLYPHOR AG, priority 2008, published 2017).
Like-named read-outs stand apart in the source and are kept apart here. Numbered stars: 1 amine (or outer) side, 2 acyl side, 3 side chain; on linkers, the order of the positions; unused ones are H or OH. Square brackets hold non-standard residues; d marks the D form. Peptide text beside a SMILES is read from it. Glu(cHx) = L-glutamic acid cyclohexyl ester, O=C(CC[C@H](N[*:1])C(=O)[*:2])OC1CCCCC1; Pro(4S-SH) = O=C([C@@H]1C[C@H](S[*:3])CN1[*:1])[*:2]; Trp(6-Cl) = N[C@@H](Cc1c[nH]c2cc(Cl)ccc12)C(=O)O

What was measured:
[1] = tested on: human red blood cells (hRBC); assay type: cell-based; conditions: red cells of human, 1 h
Protocol: The peptides were tested for their hemolytic activity against human red blood cells (hRBC). Fresh hRBC were washed three times with phosphate buffered saline (PBS) and centrifuged for 10 min at 2000×g. Compounds (100 μM) were incubated with 20% hRBC (v/v) for 1 h at 37° C. The final erythrocyte concentration was approximately 0.9×10^9 cells/mL. A value of 0% and 100% cell lyses, respectively, was determined by incubation of hRBC in the presence of PBS alone and 0.1% Triton X-100 in H2O, respectively. The samples were centrifuged, the supernatants were 20-fold diluted in PBS buffer and the optical densities (OD) were measured at 540 nm. The 100% lyses value (OD540H2O) gave an OD540 of approximately 1.3-1.8. Percent hemolysis was calculated as follows: […]

[2] = Plasma stability, mouse plasma; assay type: in vitro ADME; conditions: 37° C., sampled up to 240 min
Protocol: (§1) The stability of the peptides in human and mouse plasma was determined by applying the following method: 315 μl/deep well of freshly thawed human plasma (Basler Blutspende-dienst) and mouse plasma (Harlan Sera-Lab, UK), respectively, were spiked with 35 μl/well of compound in PBS (100 μM, triplicate) and incubated at 37° C. At t=0, 15, 30, 60, 120 and 240 min aliquots of 50 μl were transferred to filtration plate wells containing 150 μl/well of acetonitrile. Following shaking for 2 min the occurred suspensions were filtrated by vacuum and finally. 100 μl of each filtrate were transferred to a propylene microtiter plate, and analyzed by LC/MS as follows: Column: Waters, XBridge C18, mobile phases: (A) water+0.1% formic acid and (B) acetonitrile/water, 95/5 (v/v)+0.1% formic acid, gradient: 5%-100% (B) in 2 minutes, electrospray ionization, MRM detection (triple quadrupole). The peak areas were determined and triplicate values were averaged. The stability was expressed in percent of the initial value at t=0. (tx/t0×100). By using the TREND function of EXCEL (Microsoft Office 2003) T1/2 were determined.

[3] = Plasma stability, human plasma; assay type: in vitro ADME; conditions: 37° C., sampled up to 240 min
Protocol: as §1

in vitro [4] = assay type: cell-based
Protocol: (§2) The cytotoxicity of the peptides to HELA cells (Acc57) and COS-7 cells (CRL-1651) was determined using the MTT reduction assay. Briefly, the method was as follows: 7000 HELA cells/well and 4500 COS-7 cells/well were seeded and grown in 96-well microtiter plates for 24 h at 37° C. at 5% CO2. Thereafter, time zero (Tz) was determined by MTT reduction (see below). The supernatant of the remaining wells was discarded, and fresh medium and compounds in serial dilutions (12.5, 25 and 50 μM, triplicates) were pipetted into the wells. After incubation of the cells for 48 h at 37° C. at 5% CO2 the supernatant was discarded again and 100 μL MTT reagent (0.5 mg/mL in RPMI1640 and DMEM, respectively)/well was added. Following incubation at 37° C. for 2 h the media were aspirated and the cells were spiked (100 μl isopropanol/well). The absorbance of the solubilized formazan was measured at 595 nm (OD595peptide). For each concentration averages were calculated from triplicates. The percentage of growth was calculated as follows: (OD595peptide-OD595Tz-OD595Empty well)/(OD595Tz-OD595Empty well)×100%. The GI50 (Growth Inhibition) concentrations were calculated for each peptide by using a trend line function for the concentrations (50, 25, 12.5 and 0 μM), the corresponding percentages and the value 50, (=TREND (C50:C0,%50:%0,50).

human UTR2 receptor = target: T1, human UTR2 receptor (Homo sapiens, UniProt Q9UKP6); experiment: Ca2+ assay: UTR2 receptor-agonizing and antagonizing activity (calcium mobilization, Flexstation); assay type: cell-based
T1 construct: expressed in transfected cells; host or cells: mouse pre-B cell line 300-19
T1 sequence (Q9UKP6 1-389): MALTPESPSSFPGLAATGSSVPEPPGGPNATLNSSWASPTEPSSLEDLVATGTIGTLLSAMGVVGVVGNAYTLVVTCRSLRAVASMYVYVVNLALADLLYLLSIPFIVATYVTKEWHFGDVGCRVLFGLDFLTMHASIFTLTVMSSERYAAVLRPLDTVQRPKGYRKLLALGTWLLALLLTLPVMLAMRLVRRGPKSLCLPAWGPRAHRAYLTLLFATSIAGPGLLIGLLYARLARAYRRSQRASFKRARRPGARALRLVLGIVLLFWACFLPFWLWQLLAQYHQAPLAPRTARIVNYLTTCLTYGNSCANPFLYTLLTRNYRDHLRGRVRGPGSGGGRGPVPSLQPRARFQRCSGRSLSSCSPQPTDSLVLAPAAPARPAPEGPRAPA
Description: 2.3. Ca^2+− Assay: UTR2 Receptor-Agonizing and Antagonizing Activity of the Peptides
The mouse pre-B cell line 300-19 was stably transfected with the cDNA encoding the human UTR2 receptor (GenBank Acc# NM_018949), and expression was confirmed with a positive calcium signal in response to human urotensin (Sigma Aldrich). Increases in intracellular calcium were monitored using a Flexstation 384 (Molecular Devices, Sunnyvale, Calif.). The cells were batch loaded with the Calcium 4 Assay kit (Molecular Devices) in assay buffer (Hanks Balanced salt solution, HBSS, 20 mM HEPES, pH 7.4, 0.1% BSA) for 1 h at room temperature and labeled cells were dispensed into either black 96 well or 384 well assay plates (Greiner). Calcium mobilization induced by urotensin or test compounds was measured in the Flexstation 384 (excitation, 485 nm; emission, 525 nm) for 70 seconds. Agonist activity was determined by direct addition of ligand or peptides, while antagonists were identified by spiking the cells with test compounds prior to urotensin addition. A dose response curve (compound concentration versus % maximum response for urotensin) was determined for each active agonist and antagonist and was fitted to a four parameter logistic equation using SoftmaxPro 4.8 (Molecular Devices), from which EC50% and IC50% values were calculated.

in vitro [5] = assay type: cell-based; remark: listed apart in the source
Protocol: as §2

NCoA-1 = target: T2, NCoA-1 (Homo sapiens, UniProt Q15788); experiment: Competition fluorescence polarization assay: NCoA-1 binding affinities of peptides (STAT6/NCoA-1 interaction); conditions: competition with FluoSTAT6 (200 nM), NCoA-1 1 μM; Ki calculated from IC50; read-out: Ki [μM], peptide binding to NCoA-1
T2 sequence (Q15788 257-385 limits assumed): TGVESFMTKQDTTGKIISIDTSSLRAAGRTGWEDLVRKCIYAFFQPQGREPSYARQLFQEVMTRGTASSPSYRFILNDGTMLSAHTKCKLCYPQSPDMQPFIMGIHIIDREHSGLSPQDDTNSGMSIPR
Protocol: 2.4. Fluorescence Polarization Assay: NCoA-1 Binding Affinities of Peptides
The mixtures were shaken thoroughly. Fluorescence polarization was measured on a SPECTRAmax M5 spectrometer (Molecular device) following 5-30 min incubation at room temperature. FluoSTAT6 was excited at 490 nm and emission polarization was detected at 525 nm. 40 intensity measurements were collected for each well, 20 at horizontal position of the dynamic polarizer, 20 at parallel position. As the fraction of FluoSTAT6 bound to NCoA-1 is correlated to the fluorescence polarization (FP), after normalization, the fraction of bound FluoSTAT6 (B) was determined, and the KD was calculated according to B=[(1+P/R+KD/R)−((1+P/R+KD/R)^2−4P/R)^0.5]/2, wherein P is the total probe concentration, R the total protein concentration and KD the dissociation constant (M. H. Roehrl, J. Y. Wang, G. Wagner, Biochemistry 2004, 3, 16056).
The mixture was completed by a HEPES buffer solution of NCoA-1 (1 μM final concentration) and processed as described above. STAT6Y (C-terminal tyrosine extended STAT6 794-814 peptide) was used as a positive control. As the total fluorescence intensity of FluoSTAT6 remains similar for all samples, the fraction of peptide bound to NCoA-1 is correlated to the fluorescence polarization.
Following normalization data were fitted with IGORpro Software® (WaveMetrics, Lake Oswego, Oreg., USA) to a sigmoid equation to determine IC50 values. The Ki values were calculated from IC50 values according to the method described by Nikolovska-Coleska et al. Anal. Biochem., 2004, 332, 261).

## CC(C)C[C@@H]1NC(=O)[C@@H]2CSSC[C@H](NC(=O)[C@H](CC(=O)O)NC(=O)[C@@H]3CCCN3C(=O)[C@@H](CO)NC1=O)C(=O)N[C@@H](Cc1ccccc1)C(=O)N[C@@H](Cc1c[nH]c3ccccc13)C(=O)N[C@@H](CCCCN)C(=O)N[C@@H](Cc1ccc(O)cc1)C(=O)N2 [Ex. 28]
[1]
  Hemolysis at 100 μM [%]: 0%
[2]
  Plasmastability mouse pl. T1/2: 4 h
[3]
  Plasmastability human pl. T1/2: 4 h
In vitro [4]
  GI50: > 50 µM
Human UTR2 receptor
  EC50: < 0.002 µM
In vitro [5]
  GI50: > 50 µM

## CC[C@H](C)[C@@H]1NC(=O)[C@H](CCC(=O)O)NC(=O)[C@H](Cc2c[nH]c3ccccc23)NC(=O)[C@H](C)NC(=O)[C@H](CC(C)C)NC(=O)[C@H](Cc2c[nH]c3ccccc23)NC(=O)[C@H](CCC(=O)O)NC(=O)[C@H](Cc2ccccc2)NC(=O)[C@@H]2CCCN2C(=O)[C@H]2CCCN2C1=O [compound 10] (cyclo(FEWLAWEI[dP]P))
NCoA-1
  Ki: 3.1 µM

## C[C@@H]1NC(=O)[C@H](CS)NC(=O)[C@H](Cc2c[nH]c3cc(Cl)ccc23)NC(=O)[C@H](CCC(=O)O)NC(=O)[C@H](Cc2ccccc2)NC(=O)[C@@H]2CCCN2C(=O)[C@H]2CCCN2C(=O)[C@H](Cc2ccccc2)NC(=O)[C@H](CCC(=O)O)NC(=O)[C@H](Cc2c[nH]c3ccccc23)NC1=O [compound 15] (cyclo(FE[Trp(6-Cl)]CAWEF[dP]P))
NCoA-1
  Ki: 3.1 µM

## CC(C)C[C@@H]1NC(=O)[C@@H]2CSSC[C@H](NC(=O)[C@H](CC(=O)O)NC(=O)[C@@H]3CCCN3C(=O)[C@@H](CCC(=O)O)NC1=O)C(=O)N[C@@H](Cc1ccccc1)C(=O)N[C@@H](Cc1c[nH]c3ccccc13)C(=O)N[C@@H](CCCCN)C(=O)N[C@@H](Cc1ccc(O)cc1)C(=O)N2 [compound 30]
[1]
  Hemolysis at 100 μM [%]: 0%
[2]
  Plasmastability mouse pl. T1/2: 4 h
[3]
  Plasmastability human pl. T1/2: 4 h
In vitro [4]
  GI50: > 50 µM
Human UTR2 receptor
  EC50: < 0.002 µM
In vitro [5]
  GI50: > 50 µM

## CC(C)[C@@H]1NC(=O)[C@@H]2CSSC[C@H](NC(=O)[C@H](CC(=O)O)NC(=O)[C@@H]3CCCN3C(=O)[C@H]3CCCN3C1=O)C(=O)N[C@@H](Cc1ccccc1)C(=O)N[C@@H](Cc1c[nH]c3ccccc13)C(=O)N[C@@H](CCCCN)C(=O)N[C@@H](Cc1ccc(O)cc1)C(=O)N2 [compound 31]
[1]
  Hemolysis at 100 μM [%]: 0%
[2]
  Plasmastability mouse pl. T1/2: 4 h
[3]
  Plasmastability human pl. T1/2: 4 h
In vitro [4]
  GI50: > 50 µM
Human UTR2 receptor
  EC50: < 0.002 µM
In vitro [5]
  GI50: > 50 µM

## CC(C)C[C@@H]1NC(=O)[C@@H]2CSSC[C@H](NC(=O)[C@H](CC(=O)O)NC(=O)[C@@H]3CCCN3C(=O)[C@H]3CCCN3C1=O)C(=O)N[C@@H](Cc1ccc(O)cc1)C(=O)N[C@@H](Cc1c[nH]c3ccccc13)C(=O)N[C@@H](CCCCN)C(=O)N[C@@H](Cc1ccc(O)cc1)C(=O)N2 [compound 33]
[1]
  Hemolysis at 100 μM [%]: 0%
[2]
  Plasmastability mouse pl. T1/2: 4 h
[3]
  Plasmastability human pl. T1/2: 4 h
In vitro [4]
  GI50: > 50 µM
Human UTR2 receptor
  EC50: < 0.002 µM
In vitro [5]
  GI50: > 50 µM

## CC(C)[C@@H]1NC(=O)[C@@H]2CSSC[C@H](NC(=O)[C@H](CC(=O)O)NC(=O)[C@@H]3CCCN3C(=O)[C@H]3CCCN3C1=O)C(=O)N[C@@H](Cc1ccccc1)C(=O)N[C@H](Cc1c[nH]c3ccccc13)C(=O)N[C@@H](CCCCN)C(=O)N[C@@H](Cc1ccc(O)cc1)C(=O)N2 [compound 34]
[1]
  Hemolysis at 100 μM [%]: 0%
[2]
  Plasmastability mouse pl. T1/2: 4 h
[3]
  Plasmastability human pl. T1/2: 4 h
In vitro [4]
  GI50: > 50 µM
Human UTR2 receptor
  EC50: < 0.002 µM
In vitro [5]
  GI50: > 50 µM

## backbone-cyclized β-hairpin peptidomimetic; P1-P8 Phe-Glu-Trp-Leu-Ala-Trp-Glu-Glu(cHx), template DPro-LPro (cyclo(FEWLAWE[Glu(cHx)][dP]P); SMILES CC(C)C[C@@H]1NC(=O)[C@H](Cc2c[nH]c3ccccc23)NC(=O)[C@H](CCC(=O)O)NC(=O)[C@H](Cc2ccccc2)NC(=O)[C@@H]2CCCN2C(=O)[C@H]2CCCN2C(=O)[C@H](CCC(=O)OC2CCCCC2)NC(=O)[C@H](CCC(=O)O)NC(=O)[C@H](Cc2c[nH]c3ccccc23)NC(=O)[C@H](C)NC1=O) [compound 9]
NCoA-1
  Ki: 1.5 µM

## backbone-cyclized β-hairpin peptidomimetic; P1-P8 Phe-Thr-Trp(6Cl)-Leu-Ala-Trp-Glu-Phe, template DPro-L4Mp1 (cyclo(FT[Trp(6-Cl)]LAWEF[dP][Pro(4S-SH)]); SMILES CC(C)C[C@@H]1NC(=O)[C@H](Cc2c[nH]c3cc(Cl)ccc23)NC(=O)[C@H]([C@@H](C)O)NC(=O)[C@H](Cc2ccccc2)NC(=O)[C@@H]2C[C@H](S)CN2C(=O)[C@H]2CCCN2C(=O)[C@H](Cc2ccccc2)NC(=O)[C@H](CCC(=O)O)NC(=O)[C@H](Cc2c[nH]c3ccccc23)NC(=O)[C@H](C)NC1=O) [compound 5]
NCoA-1
  Ki: 3.8 µM
